Results on one compound are retold here after publication PMC11912224, “A general approach for activity-based protein profiling of oxidoreductases with redox-differentiated diarylhalonium warheads” (Chemical Science, 2025).

The target in one test is T1, CHO (choline oxidase) (Glutamicibacter nicotianae, UniProt A0ABQ0RMK5).
T1 construct: gene ANI01nite_22550; recombinant; FAD enzyme; details not in main text
T1 sequence (A0ABQ0RMK5 1-523): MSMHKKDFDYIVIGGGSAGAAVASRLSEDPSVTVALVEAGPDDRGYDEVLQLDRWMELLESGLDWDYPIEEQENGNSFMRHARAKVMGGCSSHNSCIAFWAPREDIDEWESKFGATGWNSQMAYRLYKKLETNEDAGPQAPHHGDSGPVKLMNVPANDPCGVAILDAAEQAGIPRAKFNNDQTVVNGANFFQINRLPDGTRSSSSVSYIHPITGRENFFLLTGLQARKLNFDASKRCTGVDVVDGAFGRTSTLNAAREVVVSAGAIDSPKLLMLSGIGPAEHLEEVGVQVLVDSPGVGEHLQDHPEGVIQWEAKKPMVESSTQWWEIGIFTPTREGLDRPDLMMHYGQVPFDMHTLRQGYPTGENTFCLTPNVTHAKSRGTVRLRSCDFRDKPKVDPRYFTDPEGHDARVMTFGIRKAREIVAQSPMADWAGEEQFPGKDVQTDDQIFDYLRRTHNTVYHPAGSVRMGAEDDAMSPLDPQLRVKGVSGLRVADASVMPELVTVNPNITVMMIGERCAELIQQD
The test can be described thus: activity-based labelling, in-gel fluorescence. Format: binding. To be noted: covalent; 30 uM probe, 1 h.

Another test deals with T2, CYP3A25 (Mus musculus, UniProt O09158).
T2 construct: native, in intact mouse liver pieces
T2 sequence (O09158 1-503): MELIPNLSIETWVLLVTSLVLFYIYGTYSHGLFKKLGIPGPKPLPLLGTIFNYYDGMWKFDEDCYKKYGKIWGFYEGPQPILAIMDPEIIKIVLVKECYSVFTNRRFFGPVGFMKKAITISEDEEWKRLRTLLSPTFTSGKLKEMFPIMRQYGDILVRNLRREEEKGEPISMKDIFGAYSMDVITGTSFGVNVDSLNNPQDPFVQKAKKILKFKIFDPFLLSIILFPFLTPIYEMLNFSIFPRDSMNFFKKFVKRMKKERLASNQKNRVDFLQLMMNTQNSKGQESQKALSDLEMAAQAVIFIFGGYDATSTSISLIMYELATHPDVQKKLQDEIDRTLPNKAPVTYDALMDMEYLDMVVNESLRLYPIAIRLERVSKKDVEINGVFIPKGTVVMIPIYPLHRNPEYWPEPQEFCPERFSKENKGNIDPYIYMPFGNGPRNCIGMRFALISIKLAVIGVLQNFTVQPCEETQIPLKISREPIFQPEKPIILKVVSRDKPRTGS
The test can be described thus: covalent labelling, streptavidin enrichment, LC-MS/MS. To be noted: 30 uM probe, 1 h, mouse liver pieces.

Take `[N-]=[N+]=NCCCCCCCCCCNC(=O)c1ccc([I+]c2ccccc2)cc1` [3aa, diphenyliodonium probe 3aa]: the “activity-based labelling, in-gel fluorescence” value at CHO (choline oxidase) is on record as “led to the labeling of several of the tested oxidoreductases”. On CYP3A25, the “covalent labelling, streptavidin enrichment, LC-MS/MS” value is given as “cytochrome P450 monooxygenases (CYP3A25, CYP27A1)”.
